Assay [1] addresses T1, angiotensin II type 1 receptor (Oryctolagus cuniculus, UniProt P34976).
T1 construct: By using a specimen of isolated rabbit blood vessels; from tissue; host or cells: rabbit (New Zealand White) thoracic aorta ring
T1 sequence (P34976 1-359): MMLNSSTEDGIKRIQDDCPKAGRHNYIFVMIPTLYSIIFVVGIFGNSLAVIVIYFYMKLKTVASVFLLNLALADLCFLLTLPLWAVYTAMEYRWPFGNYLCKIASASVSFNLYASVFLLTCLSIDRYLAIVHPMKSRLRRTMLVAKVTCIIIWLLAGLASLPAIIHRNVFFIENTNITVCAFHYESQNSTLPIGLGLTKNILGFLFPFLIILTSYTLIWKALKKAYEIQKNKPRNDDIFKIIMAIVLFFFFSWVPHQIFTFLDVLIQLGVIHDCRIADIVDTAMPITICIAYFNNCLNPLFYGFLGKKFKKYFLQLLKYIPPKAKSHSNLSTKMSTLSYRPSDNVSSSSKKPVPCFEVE
Briefly: Angiotensin II antagonistic activity in isolated rabbit blood vessels. The following applies: angiotensin II (10 nM)-induced contraction of rabbit thoracic aorta ring; read-out: Angiotensin II 50% inhibition concentration. The text has this: Angiotensin II Antagonistic Activity in Isolated Rabbit Blood Vessels
By using a specimen of isolated rabbit blood vessels, antagonistic activity of the compounds of the invention against angiotensin II type 1 receptor was estimated from a dose-response curve of angiotensin II-induced blood vessel contraction. Specifically, the specimen of thoracic aorta ring of a rabbit (New Zealand White: male, 2.4 to 3.0 kg) was suspended in a magnus bath filled with Krebs-Henseleite buffer (composition: 118 mM NaCl, 4.7 mM KCl, 2.55 mM CaCl2, 1.18 mM MgSO4, 1.18 mM KH2PO4, 24.88 mM NaHCO3, and 11.1 mM D-glucose), and angiotensin II (10 nM)-induced contraction was obtained in the presence of the compounds of each Example (1 nmol/L to 10 μmol/L). During the measurement, the inside temperature of the magnus bath was maintained at 37° C. and the bath was continuously ventilated with a sufficient amount of mixed gas (95% O2 and 5% CO2). The angiotensin II-induced contraction was converted into a relative value (%) that is based on the angiotensin II (10 nM)-induced contraction in the absence of the compounds of each Example. From the concentration-response curve obtained therefrom, 50% inhibition concentration (IC50 value) was calculated by using SAS Preclinical Package Ver 5.0 (trade name, manufactured by SAS institute Japan Co., Tokyo, Japan), which is a statistical analysis program. As described in the Table 1, it was confirmed that the compounds of the invention have a potent angiotensin II antagonistic activity.

The next assay has as its target T2, human PPARγ2 (Homo sapiens, UniProt P37231).
T2 construct: the amino acids 182 to 505 of human PPARγ2; expressed in transfected cells; host or cells: COS7 cells (African green monkey kidney)
T2 sequence (P37231 182-505): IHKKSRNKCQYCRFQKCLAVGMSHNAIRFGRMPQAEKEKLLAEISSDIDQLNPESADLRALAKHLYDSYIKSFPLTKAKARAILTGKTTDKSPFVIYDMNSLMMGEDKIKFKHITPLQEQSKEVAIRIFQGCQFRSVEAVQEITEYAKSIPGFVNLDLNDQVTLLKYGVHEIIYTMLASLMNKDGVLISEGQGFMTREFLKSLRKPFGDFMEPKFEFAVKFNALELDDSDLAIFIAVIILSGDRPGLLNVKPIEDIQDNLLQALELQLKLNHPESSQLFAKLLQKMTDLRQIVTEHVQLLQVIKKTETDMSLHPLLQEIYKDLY
The assay can be described thus: PPARγ activation activity, Gal4-PPARγ2 LBD luciferase transfection assay in COS7 cells. It is filed as cell-based. As to conditions: Gal4-human PPARγ2 LBD chimera, luciferase reporter, 16 hours. Here is the method:
PPARγ Activation Activity
The agonistic activity of the compounds of the invention on PPARγ was measured based on the transfection assay using COS7 cells (DS Pharma Biomedical Co., Ltd., Osaka, Japan), which are the cell line derived from the kidney of the African green monkey. COS7 cells were cultured under 5% CO2 concentration, and DMEM medium containing 10% fetal bovine serum, glutamic acid, and antibiotics was used as a medium.
As an expression vector, a chimera in which DNA binding domain of Gal4, which is a yeast transcription factor, and ligand binding domain of human PPARγ2 are fused, i.e., a fused product between the amino acids 1 to 147 of Gal4 transcription factor and the amino acids 182 to 505 of human PPARγ2, was used. Furthermore, as a reporter vector, a firefly luciferase containing five copies of Gal4 recognition sequence in the promoter region was used. Plasmid transfection to the cells was performed according to a method which uses jetPEI (trade name, manufactured by Funakoshi Co., Ltd., Tokyo, Japan). Furthermore, β-galactosidase expression vector was employed as an internal standard.
After the transfection of the cells, the medium was replaced with a DMEM medium (containing […]) added with the test compound, and the cells were further cultured for 16 hours. After that, the luciferase activity and β-galactosidase activity in the cell lysis solution were measured.
For the present test, dimethyl sulfoxide (DMSO) was used for dissolution and dilution of the test compounds, and during the cell treatment, the DMSO concentration in DMEM medium (containing 1% serum) was adjusted to 0.1%. The 50% effective concentration of the test compound (EC50, 50% effect concentration) was calculated by using SAS Preclinical Package Ver 5.0 (trade name, manufactured by SAS institute Japan Co., Tokyo, Japan), which is a statistical analysis program.
A general note: In a reporter assay the amount or activity of a reporter protein is the signal.

As for `CCCCc1nc(-c2ncc(OCC)cn2)c(C(=O)OC)n1Cc1ccc(-c2ccccc2-c2noc(=O)[nH]2)cc1` [Example 6, methyl 2-butyl-4-(5-ethoxypyrimidin-2-yl)-1-[{2′-(5-oxo-4,5-dihydro-1,2,4-oxadiazol-3-yl)biphenyl-4-yl}methyl]-1H-imidazole-5-carboxylic acid], the IC50 in assay [1] was found to be 6940 nM. Besides, the EC50 (usually the concentration that produces a half-maximal response) on human PPARγ2 was 560 nM.
For `CCCCc1nc(-c2ccc(F)cc2)c(C(=O)NCC)n1Cc1ccc(-c2ccccc2-c2nnn[nH]2)cc1` [Example 16, 1-[{2′-(1H-tetrazol-5-yl)biphenyl-4-yl}methyl]-2-butyl-N-ethyl-4-(4-fluorophenyl)-1H-imidazole-5-carboxamide], in assay [1], the IC50 was determined as 990 nM.
The same measure, in the same setting: to `CCCCc1nc(-c2ccc(F)cc2)c(C(=O)N2CCCC2)n1Cc1ccc(-c2ccccc2-c2nnn[nH]2)cc1` [Example 19, [1-[{2′-(1H-tetrazol-5-yl)biphenyl-4-yl}methyl]-2-butyl-4-(4-fluorophenyl)-1H-imidazol-5-yl](pyrrolidin-1-yl)methanone] belongs 6980 nM.
Consider `CCCCc1nc(-c2ccc(F)cc2)c(C(N)=O)n1Cc1ccc(-c2ccccc2-c2noc(=O)[nH]2)cc1` [Example 10, 2-butyl-4-(4-fluorophenyl)-1-({2′-(5-oxo-4,5-dihydro-1,2,4-oxadiazol-3-yl)biphenyl-4-yl}methyl)-1H-imidazole-5-carboxamide], for which the IC50 in assay [1] was found to be 800 nM. At human PPARγ2, this compound displayed an EC50 of 3430 nM.
In the case of `CCCCc1nc(-c2ncc(OCC)cn2)c(CO)n1Cc1ccc(-c2ccccc2-c2nnn[nH]2)cc1` [Example 5, [1-[{2′-(1H-tetrazol-5-yl)biphenyl-4-yl}methyl]-2-butyl-4-(5-ethoxypyrimidin-2-yl)-1H-imidazol-5-yl]methanol], in assay [1], the IC50 is 770 nM.
Regarding `CCCCc1nc(-c2ccc(F)cc2)c(C(=O)OC)n1Cc1ccc(-c2ccccc2-c2noc(=O)[nH]2)cc1` [Example 2, methyl 2-butyl-4-(4-fluorophenyl)-1-[{2′-(5-oxo-4,5-dihydro-1,2,4-oxadiazol-3-yl)biphenyl-4-yl}methyl]-1H-imidazole-5-carboxylic acid], the IC50 in assay [1] was 4070 nM.
In the case of `CCCCc1nc(-c2ccc(F)cc2)c(C(=O)NCC)n1Cc1ccc(-c2ccccc2-c2noc(=O)[nH]2)cc1` [Example 11, 2-butyl-N-ethyl-4-(4-fluorophenyl)-1-[{2′-(5-oxo-4,5-dihydro-1,2,4-oxadiazol-3-yl)biphenyl-4-yl}methyl]-1H-imidazole-5-carboxamide], the IC50 in assay [1] is 5690 nM. This compound returned an EC50 at human PPARγ2 of 2280 nM.
`CCCCc1nc(-c2ccc(F)cc2)c(C(=O)N(CC)CC)n1Cc1ccc(-c2ccccc2-c2nnn[nH]2)cc1` [Example 17, 1-[{2′-(1H-tetrazol-5-yl)biphenyl-4-yl}methyl]-2-butyl-N,N-diethyl-4-(4-fluorophenyl)-1H-imidazole-5-carboxamide] came in with an EC50 on human PPARγ2 of 3300 nM.
For the compound `CCCCc1nc(-c2ccc(F)cc2)c(C(=O)N2CCOCC2)n1Cc1ccc(-c2ccccc2-c2nnn[nH]2)cc1` [Example 18, [1-[{2′-(1H-tetrazol-5-yl)biphenyl-4-yl}methyl]-2-butyl-4-(4-fluorophenyl)-1H-imidazol-5-yl](morpholino)methanone], the IC50 in assay [1] came to 1600 nM. This compound registered an EC50 on human PPARγ2 of 4320 nM.
In the same order, the values of `CCCCc1nc(-c2ncc(OCC)cn2)c(CO)n1Cc1ccc(-c2ccccc2-c2noc(=O)[nH]2)cc1` [Example 4, 3-[4′-[{2-butyl-4-(5-ethoxypyrimidin-2-yl)-5-(hydroxymethyl)-1H-imidazol-1-yl}methyl]-biphenyl-2-yl]-1,2,4-oxadiazol-5(4H)-one] are 1040 nM and 1480 nM.
In the case of `CCCCc1nc(-c2ccc(F)cc2)c(C(=O)N(CC)CC)n1Cc1ccc(-c2ccccc2-c2noc(=O)[nH]2)cc1` [Example 12], on human PPARγ2, the EC50 amounted to 2370 nM. In other words, the single-digit micromolar range.
Still for that read-out and setting: then `CCCCc1nc(-c2ccc(F)cc2)c(CO)n1Cc1ccc(-c2ccccc2-c2noc(=O)[nH]2)cc1` [Example 1, 3-[4′-[{2-butyl-4-(4-fluorophenyl)-5-(hydroxymethyl)-1H-imidazol-1-yl}methyl]biphenyl-2-yl]-1,2,4-oxadiazol-5(4H)-one], with 1520 nM.
Take `CCCCc1nc(-c2ncc(OCC)cn2)c(C(=O)OC)n1Cc1ccc(-c2ccccc2-c2nnn[nH]2)cc1` [Example 8, methyl 1-[{2′-(1H-tetrazol-5-yl)biphenyl-4-yl}methyl]-2-butyl-4-(5-ethoxypyrimidin-2-yl)-1H-imidazole-5-carboxylic acid]: the IC50 in assay [1] was 1010 nM. The compound further had a concentration for a half-maximal effect (EC50) at human PPARγ2 of 3010 nM.
The compound `CCCc1nc2c(C)cc(-c3nc4ccccc4n3C)cc2n1Cc1ccc(-c2ccccc2C(=O)O)cc1` [telmisartan, reference compound] yielded an EC50 at human PPARγ2 of 1000 to 5000 nM.
Take `CCCCc1nc(-c2ccc(F)cc2)c(C(N)=O)n1Cc1ccc(-c2ccccc2-c2nnn[nH]2)cc1` [Example 15, 1-[{2′-(1H-tetrazol-5-yl)biphenyl-4-yl}methyl]-2-butyl-4-(4-fluorophenyl)-1H-imidazole-5-carboxamide]: the IC50 in assay [1] was found to be 460 nM.

Values taken from US20120264753A1, “NOVEL 1-(BIPHENYL-4-YL-METHYL)-1H-IMIDAZOLE DERIVATIVE AND PHARMACEUTICAL PRODUCT CONTAINING SAME” (KOWA COMPANY, LTD., priority 2009, published 2012).
